Test results published in US20140243374A1, “Novel Sulfonamides” (The Brigham and Women's Hospital, Inc., priority 2011, published 2014).
Several values for one entry are separate records, joined by “and”; a condition that tells them apart may be missing. Equal entries are not always repeated.

Assays:
Type in all cases: cell-based
[1] = molecular target: T1, γ-secretase (cleavage of APP, Aβ42) (Homo sapiens, UniProt P49768); assay: Aβ (1-42) cellular assay (Aβ ELISA, HEK AP-GL-T1 6 cells); conditions: cellular Aβ42 ELISA, 24 h compound treatment
T1 construct: endogenous in cells; host or cells: HEK AP-GL-T16 luciferase reporter cells (tetracycline-induced APP substrate)
Description: Aβ (1-42) Cellular Assay.
The following assay was used to determine the extent to which the compounds of interest inhibit the cleavage of APP in vivo. AβELISA is a commercial fluorometric kit from Biosource (Invitrogen 89344). Luciferase reporter HEK AP-GL-T1 6 cells were plated at 50,000 cells/well in 96 well plates in DMEM media containing 10% tetracyclin free […], 250 μg/mL zeocin, 200 μg/mL hygromycin, and 5 μg/mL blasticidin. Compounds were added 24 h after plating and APP processing is induced simultaneously by addition of tetracycline. Following a 24 h compound treatment, […] of conditioned cell media is collected, mixed with ELISA diluent buffer containing 2 mM AEBSF and 12 mM o-phenanthroline, and immediately frozen at −80° C. For the ELISA, the samples were brought to room temperature and spun at 5000 rpm for 5 min. Samples ([…]) are incubated in the ELISA plate with […] detection antibody on a shaker at room temperature for 3 h. Wells were then washed 4 times with wash buffer and 100 mL of secondary antibody are added and incubated at room temperature for 30 min. Wells were again washed 4 times with wash buffer and 100 mL of fluorescent substrate solution are added. After 30 minutes of incubation, fluorescent signals are determine on a Gemini reader at ex 460 nm and em 560 nm. The amount of Aβ levels in each sample was determined from a standard curve generated by known concentrations of Aβ peptide run simultaneously with the samples.

[2] = molecular target: T2, γ-secretase (cleavage of Notch) (Homo sapiens, UniProt P49768); assay: Notch cellular assay (luciferase reporter U2OS cells); conditions: for IC50: U2OS luciferase reporter cells; for Notch Luc/Aβ42: ratio Notch luciferase IC50 to Aβ42 IC50
T2 construct: endogenous in cells; host or cells: U2OS luciferase reporter cells with Tet-on Notch
Description: This assay was used to determine if the compounds of interest inhibit the cleavage of Notch by γ-secretase in cells. A U2OS cell line in which the luciferase expression is adjusted by active Notch was used in this assay Notch expression is adjusted using Tet-on promoter. Luciferase reporter U2OS cells are plated at 1000 cells/well in 96 well plates in DMEM containing 100 μg/mL hygromycin, 15 μg/mL blasticidin and 1 μg/mL Tetracycline. Compounds were added 24 h after plating and the cells are lysed 6 days after adding compounds. Luciferase expression was performed using Steady-Glo Luciferase Assay System (Promega).

[3] = molecular target: T3, γ-secretase (Notch cleavage activity) (Homo sapiens, UniProt P49768); assay: Cleaved Notch1 Sandwich ELISA (SUP-T1 cell line); conditions: for IC50: SUP-T1 cells, 16 h; for Notch Elisa/Aβ42: ratio Notch Elisa IC50 to Aβ42 IC50
T3 construct: endogenous in cells; host or cells: SUP-T1 cells
Description: Cleaved Notch1 Sandwich ELISA.
This assay was used to determine if the compounds of interest inhibit the Notch cleavage activity of γ-secretase in SUP-T1 cell line, which endogenously expresses a truncated Notch receptor fragment that is a viable gamma-secretase substrate. The base medium for this cell line is ATCC-formulated RPMI-1640 Medium with fetal bovine serum to a final concentration of 10%. Prepare dilution of SUP-T1 cells in complete growth medium to 1.0×10^6 cells/mL, seed 1.5 mL per well of each cell dilution into a 6-well plate. Collect cells treated with serial diluted compounds in DMSO after 16 h, then using equal amount of protein isolated from samples to measure Notch intracellular cleavage by PathScan® Sandwich ELISA Kit (Cell Signaling Tech 7194S).

IC50 [1] | IC50 [2] | Notch Luc/Aβ42 [2] | IC50 [3] | Notch Elisa/Aβ42 [3] | SMILES | other results
62.2 nM | 3230 nM | 52 |  |  | O=C(O)c1ccc(CN(C2CCCC(C(F)(F)F)C2)S(=O)(=O)c2ccc(Cl)cc2)cc1 (stereo not shown) [Example 51, 4-((4-Chloro-N-(3-(trifluoromethyl)cyclohexyl)phenylsulfonamido)methyl)benzoic acid] | 
341 nM and 686 nM and 207 nM | 259000 nM |  | 10100 nM |  | O=C(O)c1ccc(CN(C2CCCCC2F)S(=O)(=O)c2ccc(Cl)cc2)cc1 (single isomer, unassigned) [Example 58, 4-((4-Chloro-N-(2-fluorocyclohexyl)phenylsulfonamido)methyl)benzoic acid] | Notch Elisa/Aβ42 ([3]; listed as 58/1231A): 25; Notch Luc/Aβ42 ([2]; listed as 58/1231A): 630
12 nM |  |  | 1070 nM | 89 | C[C@H](CO)NC(=O)c1ccc(CN(C2CCCC(C(F)(F)F)C2)S(=O)(=O)c2ccc(Cl)nc2)cc1 (stereo partly drawn) [Example 64, 4-((6-Chloro-N-(3-(trifluoromethyl)cyclohexyl)pyridine-3-sulfonamido)methyl)-N—((R)-1-hydroxypropan-2-yl)benzamide] | 
2.56 nM | 3030 nM |  |  |  | CC1CCCCC1N(Cc1ccc(C(=O)NCCN(C)C)cc1)S(=O)(=O)c1ccc(Cl)cc1 (stereo not shown) [Example 40, 4-((4-Chloro-N-(2-methylcyclohexyl)phenylsulfonamido)methyl)-N-(2-(dimethylamino)ethyl)benzamide] | 
80.7 nM | 4580 nM | 57 |  |  | CC1CCCCC1N(Cc1ccc(C(=O)NCCC(=O)O)cc1)S(=O)(=O)c1ccc(Cl)cc1 (stereo not shown) [Example 36, 3-(4-((4-Chloro-N-(2-methylcyclohexyl)phenylsulfonamido)methyl)benzamido)propanoic acid] | 
32.8 nM and 70.7 nM |  |  | 4140 nM | 80 | CN(C)CCNC(=O)c1ccc(CN(C2CCCCC2F)S(=O)(=O)c2ccc(Cl)cc2)cc1.Cl (stereo not shown) [Example 75, 4-((4-Chloro-N-(2-fluorocyclohexyl)phenylsulfonamido)methyl)-N-(2-(dimethylamino)ethyl)benzamide hydrochloride] | 
2.61 nM | 574 nM | 220 |  |  | CC1CCCCC1N(Cc1ccc(C(=O)NCC(F)(F)F)cc1)S(=O)(=O)c1ccc(Cl)cc1 (stereo not shown) [Example 54, 4-((4-Chloro-N-(2-methylcyclohexyl)phenylsulfonamido)methyl)-N-(2,2,2-trifluoroethyl)benzamide] | 
8.3 nM and 12.8 nM |  |  | 667 nM | 64 | CC1CCCCC1N(Cc1ccc(C(=O)NCCN2CCCC2)cc1)S(=O)(=O)c1ccc(Cl)cc1 (stereo not shown) [Example 38, 4-((4-Chloro-N-(2-methylcyclohexyl)phenylsulfonamido)methyl)-N-(2-(pyrrolidin-1-yl)ethyl)benzamide] | 

The remaining lines, values behind:

SMILES | IC50 [1] | IC50 [2] | Notch Luc/Aβ42 [2] | IC50 [3] | Notch Elisa/Aβ42 [3] | other results
COC[C@@H](C)NC(=O)c1ccc(CN(C2CCCCC2C)S(=O)(=O)c2ccc(Cl)cc2)cc1 (stereo partly drawn) [Example 14, 4-((4-Chloro-N-(2-methylcyclohexyl)phenylsulfonamido)methyl)-N-((R)-1-methoxypropan-2-yl)benzamide] | 0.7 nM | 303 nM |  | 710 nM | 1014 | Notch Luc/Aβ42 ([2]; listed as 14/1136): 433
CC(=O)CNC(=O)c1ccc(CN(C2CCCCC2C)S(=O)(=O)c2ccc(Cl)cc2)cc1 (stereo not shown) [Example 48, 4-((4-Chloro-N-(2-methylcyclohexyl)phenylsulfonamido)methyl)-N-(2-oxopropyl)benzamide] | 0.715 nM | 182 nM | 260 | 220 nM | 314 | 
CC1CCCCC1N(Cc1ccc(C(=O)N[C@H](C)CO)cc1)S(=O)(=O)c1ccc(Cl)cc1 (stereo partly drawn) [Example 4, 4-((4-Chloro-N-(2-methylcyclohexyl)phenylsulfonamido)methyl)-N-((R)-1-hydroxypropan-2-yl)benzamide] | 0.87 nM and 0.65 nM and 0.89 nM |  | 2950 | 180 nM and 120 nM | 188 | 
O=C(O)c1ccc(CN(C2CCCCC2F)S(=O)(=O)c2ccc(Cl)cc2)cc1 (single isomer, unassigned) [Example 59, 4-((4-Chloro-N-(2-fluorocyclohexyl)phenylsulfonamido)methyl)benzoic acid] | 60.7 nM and 195 nM and 101 nM | 9400 nM |  | 2930 nM |  | Notch Elisa/Aβ42 ([3]; listed as 59/1231B): 25; Notch Luc/Aβ42 ([2]; listed as 59/1231B): 79
CC1CCCCC1N(Cc1ccc(C(=O)NCCC(F)(F)F)cc1)S(=O)(=O)c1ccc(Cl)cc1 (stereo not shown) [Example 55, 4-((4-Chloro-N-(2-methylcyclohexyl)phenylsulfonamido)methyl)-N-(3,3,3 trifluoropropyl)benzamide] | 4.3 nM | 1100 nM | 256 |  |  | 
CC[C@@H](C1CCCC1)N(Cc1ccc(C(=O)OC)cc1)S(=O)(=O)c1ccc(Cl)cc1 [Example 21, (S)-Methyl 4-((4-chloro-N-(1-cyclopentylpropyl)phenylsulfonamido)methyl)benzoate] | 24 nM | 13000 nM | 542 |  |  | 
O=C(O)c1ccc(CN(C2CCCC(C(F)(F)F)C2)S(=O)(=O)c2ccc(Cl)cc2)cc1 (single isomer, unassigned) [Example 53, 4-((4-Chloro-N-(3-(trifluoromethyl)cyclohexyl)phenylsulfonamido)methyl)benzoic acid] | 1190 nM |  |  | 34800 nM |  | Notch Elisa/Aβ42 ([3]; listed as 53/1227D): 29
CC1CCCCC1N(Cc1ccc(C(=O)O)cc1)S(=O)(=O)c1ccc(Cl)nc1 (stereo not shown) [Example 44, 4-((6-Chloro-N-(2-methylcyclohexyl)pyridine-3-sulfonamido)methyl)benzoic acid] | 6.4 nM and 20 nM |  |  | 2980 nM and 2730 nM | 220 | 
COCC(C)NC(=O)c1ccc(CN(C2CCCCC2F)S(=O)(=O)c2ccc(Cl)cc2)cc1 (stereo not shown) [Example 85, 4-((4-Chloro-N-(2-fluorocyclohexyl)phenylsulfonamido)methyl)-N-(1-methoxypropan-2-yl)benzamide] | 13.3 nM |  |  | 1180 nM | 89 | 
COC(=O)c1ccc(CN(C2CCCCC2C)S(=O)(=O)c2ccc(Cl)cc2)cc1 (stereo not shown) [Example 2, Methyl 4-((4-chloro-N-(2-methylcyclohexyl)phenylsulfonamido)methyl)benzoate] | 3.4 nM | 3000 nM |  |  |  | 
COC(=O)c1ccc(CN([C@@H]2CCCC[C@H]2F)S(=O)(=O)c2ccc(Cl)cc2)cc1 [Example 83, Methyl 4-((4-chloro-N-((1R,2R)-2-fluorocyclohexyl)phenylsulfonamido)methyl)benzoate] | 44.3 nM |  |  | 1570 nM | 35 | 
C[C@@H](CO)NC(=O)c1ccc(CN(C2CCCCC2C(F)(F)F)S(=O)(=O)c2ccc(Cl)cc2)cc1 (stereo partly drawn) [Example 69, 4-((4-Chloro-N-(2-(trifluoromethyl)cyclohexyl)phenylsulfonamido)methyl)-N—((S)-1-hydroxypropan-2-yl)benzamide] | 2.16 nM |  |  | 94 nM | 44 | 
CN(C)CCNC(=O)c1ccc(CN(C2CCCCC2F)S(=O)(=O)c2ccc(Cl)cc2)cc1 (stereo not shown) [Example 74, 4-((4-Chloro-N-(2-fluorocyclohexyl)phenylsulfonamido)methyl)-N-(2-(dimethylamino)ethyl)benzamide] | 130 nM |  |  | 10000 nM | 78 | 
